The subject of series [1] is HIV-1. The arrangement: method as in PMID 15911030. The settings on record: comparison data; read-out: RV (VIH) IC50; cited from earlier work.
Series [2] concerns tetracycline-induced luciferase activity in HeLa-Tet-ON cells. The arrangement: method as in PMID 15911030; key: S: specific; U: unspecific modes of action. The settings on record: comparison data; cited from earlier work.
Series [3] deals with HIV-1 Tat protein. Further details: method as in PMID 15911030. Particulars: comparison data; cited from earlier work.
The subject of series [4] is NF-κB. Further details: method as in PMID 15911030. The settings on record: comparison data, cited from earlier work.
Series [5] relates to non-infected MT-2 cells. Further details: method as in PMID 15911030. The settings on record: comparison data; read-out: Toxicity CC50; cited from earlier work.
For series [6], the system named is HIV-1 Tat protein. The series is described as follows: HeLa-Tat-Luc cells, HIV-1 LTR activated by Tat. Type of series: cell-based. An excerpt:
(§1) In the characterization of anti-HIV activity, the effect of these coumarins on Tat and NF-κB functions has been evaluated in a similar manner as we described in a previous publication. We have used two transfected 5.1 cell lines, in which we measured NF-κB activation induced by TNFα [42] and HeLa-Tat-Luc cells, in which the HIV-1 LTR is directly activated by the HIV-1 Tat protein. Most of the compounds were submitted for further evaluation through a HeLa-Tet-ON assay in order to determine the selectivity of their action. To avoid missing compounds acting through another mechanism, all substances were also evaluated using a recombinant virus (RV) assay. In this system, a luciferase reporter gene was cloned in full-length infectious DNA. As a result, the measured luciferase activity is therefore proportional to viral replication.
(§2) The anti-HIV activity of these coumarins on Tat and NF-κB functions has been analysed. To this aim, we have used two stably transfected cell lines. The previously described 5.1 cell line is a Jurkat-derived clone stably transfected with a plasmid containing the luciferase gene under the control of HIV-LTR. In this cell clone, activation with TNFα induces NF-κB activation and subsequent HIV-1 expression. We have also analyzed the anti-HIV activity in HeLa-Tat-Luc cells, in which the HIV-1 LTR is directly activated by the HIV-1 Tat protein. A compound was considered active in one assay if it inhibited the target function by more than 50% (NF-κB) or 30% (Tat) at either 25 or 50 μM concentration. The active compounds were submitted for further evaluation through a HeLa-Tet-ON assay, as previously described. In the Hela-Tet-ON cells the luciferase expression is under control of an artificial promoter that can be activated by tetracycline. Therefore, compounds that inhibit tetracycline-induced luciferase activity were considered non-specific for luciferase-based anti-HIV assays and were not examined further, and those showing specific activity (non-inhibitors in HeLa-Tet-ON cells) were analysed using a recombinant virus (RV) assay. […] In this system, a luciferase reporter gene has been cloned in full-length infectious DNA. The measured luciferase activity is therefore directly proportional to the replication of the virus. This assay is more sensitive and reliable than classic infectious assays. Cell viability was evaluated in non-infected treated cultures following the same protocol as in the recombinant virus assay and measuring cell toxicity with a classical MTT assay. IC50 and CC50 were calculated using GraphPad Prism software [non-linear regression, log (inhibitor) vs. response].

For series [7], the system named is tetracycline-induced luciferase activity in HeLa-Tet-ON cells. The series is described as follows: HeLa-Tet-ON specificity assay. Type of series: cell-based. The arrangement: key: S: specific; U: unspecific modes of action.
Description: as §1, §2

Series [8] deals with NF-κB. The series is described as follows: 5.1 cell line + TNFα, HIV-LTR luciferase (NF-κB activation). Type of series: cell-based.
Description: as §1, §2

For series [9], the system named is non-infected MT-2 cells. The series is described as follows: Cell viability, MTT assay in non-infected treated cultures. In kind it is cell-based. The arrangement: Toxicity (%) CC50: unit not given here. The settings on record: MTT, non-infected cultures.
Description: as §2

Series [10] relates to HIV-1. Kind of series: Recombinant virus (RV) assay, luciferase reporter virus on MT-2 cells. In kind it is cell-based. The method, then:
We have synthesized fourteen 3-phenylcoumarin derivatives and evaluated their anti-HIV activity. Antiviral activity was assessed on MT-2 cells infected with viral clones carrying the luciferase gene as reporter. Inhibition of HIV transcription and Tat function were tested on cells stably transfected with the HIV-LTR and Tat protein. […] The antiviral effect of the 4-hydroxycoumarin derivative 19 correlates with its specific inhibition of Tat functions, while compound 8, 3-(2-chlorophenyl)coumarin, seems to act through a mechanism unrelated to the molecular targets considered in this research.
as §1, §2

Like-named read-outs stand apart in the source and are kept apart here.

This is an account of results in PMC6268528, “3-Phenylcoumarins as Inhibitors of HIV-1 Replication” (Molecules, 2012).

As to `CC(C)=CCc1c(O)c(C(=O)C(C)C)c(O)c2c(-c3ccccc3)cc(=O)oc12` [Mesuol], the IC50 in the series with HIV-1 [1] was 2.5 µM. The “HeLa-Tet-ON 50 µM (specific / unspecific)” value in series [2] is reported as “S”. Also, the “Antiviral activity Hela-Tat-luc 50 µM” value in the series on HIV-1 Tat protein [3] was 71.3 ± 8.9%. Also, in the series on NF-κB [4] (25 µM), the “Antiviral activity 5.1 + TNFα 25 µM” value is reported as 71.0 ± 4.8%. The “Antiviral activity 5.1 + TNFα 50 µM” value in the series with NF-κB [4] (50 µM) is on record as 77.9 ± 4.9%. Also, in the series on non-infected MT-2 cells [5], the CC50 is more than 4 µM.
In turn, `CSc1ccc(-c2cc3ccccc3oc2=O)cc1` [Compound 11, 3-(4-Methylsulfanylphenyl)-2H-chromen-2-one] displayed a melting point of 157 to 159 °C. For the same compound, the “anti-Tat activity and specificity, in words” value in the series with HIV-1 Tat protein [6] (HeLa-Tat-Luc and Hela-Tet-ON assays) is “potent though unspecific anti-Tat activity”. Moreover, the inhibition at 25 µM in the series on HIV-1 Tat protein [6] (Human immunodeficiency virus 1, read-out: Antiviral activity Hela-Tat-luc 25 µM (inhibition of Tat function)) amounted to 77.5 ± 8.5%. In addition, the inhibition at 50 µM with HIV-1 Tat protein [6] (Human immunodeficiency virus 1, read-out: Antiviral activity Hela-Tat-luc 50 µM (inhibition of Tat function)) was found to be 80.1 ± 5.6%. For the same compound, the “HeLa-Tet-ON 50 µM (specific / unspecific mode of action)” value in series [7] is reported as “U”. Besides, in the series with NF-κB [8] (25 μM), the “inhibitory activity in the NF-κB test, in words” value is on record as “confirmed”. Besides, the “inhibitory activity in the NF-κB test, in words” value with NF-κB [8] (50 µM) is listed as “fair inhibitory activity”. In the series with NF-κB [8] (read-out: Antiviral activity 5.1 + TNFα 25 µM (inhibition of NF-κB function)), the inhibition at 25 µM came out at 84.3 ± 3%. Also, in the series with NF-κB [8] (read-out: Antiviral activity 5.1 + TNFα 50 µM (inhibition of NF-κB function)), the inhibition at 50 µM is 81.6 ± 5.6%. In the series with non-infected MT-2 cells [9], the “Toxicity (%) CC50” value is more than 50. In addition, the IC50 with HIV-1 [10] (Human immunodeficiency virus 1, MT2, read-out: RV (VIH) IC50) was determined as 18.2 ± 0.2 µM. Besides, the “rank as inhibitor of HIV replication, in words” value with HIV-1 [10] (RV assay) was “most potent inhibitor of HIV replication”.
